The source of these data is patent publication US9624214B2, “Amino-substituted imidazo[1,2-a]pyridinecarboxamides and their use” (BAYER PHARMA AKTIENGESELLSCHAFT, priority 2012, dated 2017).

SMILES strings stand for the structures. Structures can show the parent of a compound that is named as a salt.

For the assay, the target named is T1, recombinant guanylate cyclase reporter cell line (Rattus norvegicus, UniProt P19686+P20595).
T1 construct: expressed in transfected cells
T1 sequence (P20595 1-619): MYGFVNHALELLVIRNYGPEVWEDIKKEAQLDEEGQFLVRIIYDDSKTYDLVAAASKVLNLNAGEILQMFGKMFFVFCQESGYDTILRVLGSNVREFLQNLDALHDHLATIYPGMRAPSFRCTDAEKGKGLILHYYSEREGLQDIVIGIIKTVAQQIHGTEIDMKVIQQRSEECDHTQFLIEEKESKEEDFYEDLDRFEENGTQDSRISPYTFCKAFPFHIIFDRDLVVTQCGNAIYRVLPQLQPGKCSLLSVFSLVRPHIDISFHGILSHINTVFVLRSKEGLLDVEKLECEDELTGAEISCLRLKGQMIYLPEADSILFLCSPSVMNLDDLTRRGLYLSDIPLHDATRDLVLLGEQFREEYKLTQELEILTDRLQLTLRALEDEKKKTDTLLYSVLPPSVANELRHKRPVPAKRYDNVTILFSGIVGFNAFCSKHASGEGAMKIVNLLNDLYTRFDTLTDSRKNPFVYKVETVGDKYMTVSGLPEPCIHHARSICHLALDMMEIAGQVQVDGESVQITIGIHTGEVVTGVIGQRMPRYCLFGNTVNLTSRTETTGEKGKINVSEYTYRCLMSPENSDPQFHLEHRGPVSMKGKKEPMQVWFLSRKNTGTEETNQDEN
T1 sequence (P19686 1-690): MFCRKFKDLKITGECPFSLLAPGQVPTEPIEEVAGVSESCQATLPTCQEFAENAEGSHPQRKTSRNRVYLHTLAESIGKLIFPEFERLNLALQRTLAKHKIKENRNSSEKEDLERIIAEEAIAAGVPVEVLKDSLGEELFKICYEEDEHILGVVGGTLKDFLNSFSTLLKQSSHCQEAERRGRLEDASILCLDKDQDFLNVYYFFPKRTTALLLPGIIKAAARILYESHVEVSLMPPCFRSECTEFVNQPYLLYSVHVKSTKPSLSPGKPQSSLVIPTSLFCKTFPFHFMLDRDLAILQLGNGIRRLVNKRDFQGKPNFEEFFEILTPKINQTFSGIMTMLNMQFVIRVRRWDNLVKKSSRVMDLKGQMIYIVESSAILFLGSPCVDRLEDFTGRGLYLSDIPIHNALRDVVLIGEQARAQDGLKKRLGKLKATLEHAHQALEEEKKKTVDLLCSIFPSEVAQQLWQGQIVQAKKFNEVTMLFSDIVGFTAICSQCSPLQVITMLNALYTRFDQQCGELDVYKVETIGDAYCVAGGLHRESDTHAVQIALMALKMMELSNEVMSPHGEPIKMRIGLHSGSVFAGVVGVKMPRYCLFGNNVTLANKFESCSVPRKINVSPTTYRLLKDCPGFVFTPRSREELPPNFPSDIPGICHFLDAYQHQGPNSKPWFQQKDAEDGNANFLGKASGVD
The assay can be described thus: B-2. Action on recombinant guanylate cyclase reporter cell line. The assay is classed as cell-based. Conditions: MEC = minimal effective concentration; in some cases mean values from individual determinations. How it is done: B-2. Action on Recombinant Guanylate Cyclase Reporter Cell Line
The cellular action of the compounds according to the invention is determined on a recombinant guanylate cyclase reporter cell line, as described in F. Wunder et al., Anal. Biochem. 339, 104-112 (2005).
Representative MEC values (MEC=minimal effective concentration) for the compounds according to the invention are shown in the following table (in some cases as mean values obtained from individual determinations): […]
In the case of `Cc1cc(OCc2c(F)ccc(F)c2F)c2nc(C)c(C(=O)NCC(C)(N)CF)n2c1` (single isomer, unassigned; enantiomer b) [Example 286, ent-N-(2-amino-3-fluoro-2-methylpropyl)-2,6-dimethyl-8-[(2,3,6-trifluorobenzyl)oxy]imidazo[1,2-a]pyridine-3-carboxamide (Enantiomer B)], the MEC amounted to 0.1 µM.
The result for `Cc1nc2c(OCc3c(F)cccc3F)cccn2c1C(=O)NCC(C)(N)CCO` (single isomer, unassigned; enantiomer a) [Example 272, ent-N-(2-Amino-4-hydroxy-2-methylbutyl)-8-[(2,6-difluorobenzyl)oxy]-2-methylimidazo[1,2-a]-pyridine-3-carboxamide (Enantiomer A)] reads 5.5 µM.
The same measure for `CSCCC(CN)NC(=O)c1c(C)nc2c(OCc3c(F)cccc3F)cc(C)cn12` (racemic) [Example 391, rac-N-[1-amino-4-(methylsulfanyl)butan-2-yl]-8-[(2,6-difluorobenzyl)oxy]-2,6-dimethylimidazo[1,2-a]pyridine-3-carboxamide]: 0.10 µM; for `Cc1cc(OCc2c(F)cccc2F)c2nc(C)c(C(=O)NC3(C)CCC3(C)N)n2c1` (single isomer, unassigned; enantiomer b) [Example 337, ent-N-[(2-amino-1,2-dimethylcyclobutyl]-8-[(2,6-difluorobenzyl)oxy]-2,6-dimethylimidazo[1,2-a]pyridine-3-carboxamide (Enantiomer B)]: 0.55 µM.
The result for `Cc1nc2c(OCc3c(F)cccc3F)cccn2c1C(=O)NC(C)CN` (single isomer, unassigned; enantiomer a) [Example 19, ent-N-(1-Aminopropan-2-yl)-8-[(2,6-difluorobenzyl)oxy]-2-methylimidazo[1,2-a]pyridine-3-carboxamide (Enantiomer A)] reads 1.66 µM; that for `Cc1nc2c(OCc3c(F)cccc3F)cc(Cl)cn2c1C(=O)NCC1(N)CCC1` [Example 155, N-[(1-aminocyclobutyl)methyl]-6-chloro-8-[(2,6-difluorobenzyl)oxy]-2-methylimidazo[1,2-a]-pyridine-3-carboxamide trifluoroacetate], 0.30 µM; that for `Cc1nc2c(OCc3c(F)cccc3F)cc(Cl)cn2c1C(=O)NC(C)CN` (stereo not drawn) [Example 22, ent-N-(1-aminopropan-2-yl)-6-chloro-8-[(2,6-difluorobenzyl)oxy]-2-methylimidazo[1,2-a]-pyridine-3-carboxamide], 0.30 µM.
With `Cc1cc(OCc2c(F)cccc2F)c2nc(C)c(C(=O)NCC(N)CC(F)(F)F)n2c1` (single isomer, unassigned) [Example 129, ent-N-(2-Amino-4,4,4-trifluorobutyl)-8-[(2,6-difluorobenzyl)oxy]-2,6-dimethylimidazo[1,2-a]-pyridine-3-carboxamide], the MEC came to 0.10 µM.
The result for `Cc1nc2c(OCc3c(F)cccc3F)cccn2c1C(=O)NC(C)(C)C(C)(C)N` [Example 141, N-(3-Amino-2,3-dimethylbutan-2-yl)-8-[(2,6-difluorobenzyl)oxy]-2-methylimidazo[1,2-a]pyridine-3-carboxamide] reads 3.00 µM.
The same measure for `Cc1nc2c(OCc3c(F)cccc3F)cc(Cl)cn2c1C(=O)NCC(C)(C)N` [Example 73, N-(2-Amino-2-methylpropyl)-6-chloro-8-[(2,6-difluorobenzyl)oxy]-2-methylimidazo[1,2-a]-pyridine-3-carboxamide]: 0.30 µM.
The same measure for `Cc1nc2c(OCc3c(F)cccc3F)cccn2c1C(=O)N[C@H](C)CN1CCOCC1` [Example 170, 8-[(2,6-difluorobenzyl)oxy]-2-methyl-N-[(2R)-1-(morpholin-4-yl)propan-2-yl]imidazo[1,2-a]-pyridine-3-carboxamide]: 3.00 µM.
`CCCC(C)(N)CNC(=O)c1c(C)nc2c(OCc3c(F)ccc(F)c3F)cc(C)cn12` (single isomer, unassigned) [Example 295, ent-N-(2-amino-2-methylpentyl)-2,6-dimethyl-8-[(2,3,6-trifluorobenzyl)oxy]imidazo[1,2-a]pyridine-3-carboxamide]: the MEC amounted to 0.10 µM.
Take `CCCC(C)(N)CNC(=O)c1c(C)nc2c(OCc3c(F)cccc3F)cc(C(F)F)cn12` (single isomer, unassigned; enantiomer b) [Example 290, ent-N-(2-amino-2-methylpentyl)-8-[(2,6-difluorobenzyl)oxy]-6-(difluoromethyl)-2-methylimidazo[1,2-a]pyridine-3-carboxamide (Enantiomer B)]: the MEC was 0.3 µM.
As to `CCC(C)(N)CNC(=O)c1c(C)nc2c(OCc3c(F)cccc3F)cc(Cl)cn12` (single isomer, unassigned) [Example 195, ent-N-(2-Amino-2-methylbutyl)-6-chloro-8-[(2,6-difluorobenzyl)oxy]-2-methylimidazo[1,2-a]-pyridine-3-carboxamide], the MEC was determined as 0.30 µM.
On to `Cc1nc2c(OCc3c(F)cccc3F)cccn2c1C(=O)NCC(N)C(F)(F)F` (single isomer, unassigned) [Example 208, ent-N-(2-Amino-3,3,3-trifluoropropyl)-8-[(2,6-difluorobenzyl)oxy]-2-methylimidazo[1,2-a]-pyridine-3-carboxamide], for which the MEC worked out at 0.30 µM.
Regarding `CCCC(C)(N)CNC(=O)c1c(C)nc2c(OCc3c(F)cccc3F)cc(CF)cn12` (stereo not drawn) [Example 403, ent-N-(2-amino-2-methylpentyl)-8-[(2,6-difluorobenzyl)oxy]-6-(fluoromethyl)-2-methylimidazo[1,2-a]pyridine-3-carboxamide], the MEC was 0.10 µM.
Turning to `COCCNCCNC(=O)c1c(C)nc2c(OCc3c(F)cccc3F)cc(Cl)cn12` [Example 153, 6-chloro-8-[(2,6-difluorobenzyl)oxy]-N-{2-[(2-methoxyethyl)amino]ethyl}-2-methylimidazo[1,2-a]pyridine-3-carboxamide], the MEC came out at 1.00 µM.
In the case of `Cc1cc(OCc2c(F)cccc2F)c2nc(C)c(C(=O)NCC(C)N3CCOCC3)n2c1` (racemic) [Example 138, rac-8-[(2,6-difluorobenzyl)oxy]-2,6-dimethyl-N-[2-(morpholin-4-yl)propyl]imidazo[1,2-a]-pyridine-3-carboxamide], the MEC amounted to 0.30 µM.
The result for `Cc1cc(OCc2c(F)cccc2F)c2nc(C)c(C(=O)NC(CN)c3ccc4c(c3)OCO4)n2c1` (racemic) [Example 381, rac-N-[2-amino-1-(1,3-benzodioxol-5-yl)ethyl]-8-[(2,6-difluorobenzyl)oxy]-2,6-dimethylimidazo[1,2-a]pyridine-3-carboxamide] reads 0.30 µM; that for `Cc1cc(OCc2c(F)cccc2F)c2nc(C)c(C(=O)NCCN3CC(N4CCCC4)C3)n2c1` [Example 162, 8-[(2,6-difluorobenzyl)oxy]-2,6-dimethyl-N-{2-[3-(pyrrolidin-1-yl)azetidin-1-yl]ethyl}imidazo[1,2-a]pyridine-3-carboxamide], 3.00 µM.
The result for `Cc1nc2c(OCc3c(F)cccc3F)cccn2c1C(=O)NCCN1CCN(C)CC1` [Example 133, 8-[(2,6-difluorobenzyl)oxy]-2-methyl-N-[2-(4-methylpiperazin-1-yl)ethyl]imidazo[1,2-a]-pyridine-3-carboxamide] reads 3.00 µM.
In the case of `Cc1nc2c(OCc3c(F)cccc3F)cc(Cl)cn2c1C(=O)NCC(C)(N)C(F)(F)F` (racemic) [Example 236, rac-N-(2-Amino-3,3,3-trifluoro-2-methylpropyl)-6-chloro-8-[(2,6-difluorobenzyl)oxy]-2-methylimidazo[1,2-a]pyridine-3-carboxamide], the MEC worked out at 0.30 µM.
